Measurements taken from US11572353B2, “Alkynyl-substituted heterocyclic compound, preparation method therefor and medical use thereof” (BEIJING INNOCARE PHARMA TECH CO., LTD., priority 2016, dated 2023).

Key:
[1] = molecular target: human recombinant FGFR3 catalytic domain protein (amino acid 399-806) (Homo sapiens (Human), UniProt P22607); experiment: FGFR3 activity inhibition test (HTRF kinase assay); assay type: biochemical; conditions: 90 μM ATP
Description: (§1) The effect of the compounds of the present invention on the in vitro activity of FGFR was assessed by measuring the phosphorylation level of the substrate in a kinase reaction using the HTRF kinase assay kit (Table 1).
(§2) If the IC50 value of a compound is very low, the initial concentration of the compound can be lowered.
(§3) The IC50 value of the compound was calculated from the 10 concentration points using the XLfit software in Excel by the following formula: Y=Bottom+(Top−Bottom)/(1+10^((log IC50−X)*slope factor))
(§4) Where Y is the percentage of inhibition, Bottom is the bottom platform value of the S-curve, Top is the top platform value of the S-curve, X is the logarithm of the concentration of the compound to be tested, and slope factor is the slope coefficient of the curve.

[2] = molecular target: human recombinant FGFR1 catalytic domain protein (amino acid 308-731) (Homo sapiens (Human), UniProt P11362); experiment: FGFR1 activity inhibition test (HTRF kinase assay); assay type: biochemical; conditions: 40 μM ATP
Sequence of human recombinant FGFR1 catalytic domain protein (amino acid 308-731) (P11362 other isoform, or with tags, fused parts or gaps): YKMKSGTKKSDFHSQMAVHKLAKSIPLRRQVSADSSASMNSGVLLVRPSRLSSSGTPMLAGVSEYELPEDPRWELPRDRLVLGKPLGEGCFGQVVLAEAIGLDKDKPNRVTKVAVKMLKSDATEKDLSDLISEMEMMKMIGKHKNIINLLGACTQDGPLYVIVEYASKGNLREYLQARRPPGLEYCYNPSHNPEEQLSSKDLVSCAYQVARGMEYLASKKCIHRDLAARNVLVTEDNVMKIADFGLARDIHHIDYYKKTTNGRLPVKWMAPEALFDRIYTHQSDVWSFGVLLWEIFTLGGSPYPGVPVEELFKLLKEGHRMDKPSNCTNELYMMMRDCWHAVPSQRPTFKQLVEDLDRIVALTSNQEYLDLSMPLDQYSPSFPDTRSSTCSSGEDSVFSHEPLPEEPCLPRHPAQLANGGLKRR
Description: as §1, §2, §3, §4

Hep3B hepatoma cell line = experiment: Inhibition on the proliferation of Hep3B cells (luminescent cell viability assay); assay type: cell-based; conditions: Homo sapiens, 72 hours
Description: The effect of the compounds of the present invention on cell proliferation of Hep3B hepatoma cell line was assessed using a luminescent cell viability assay (Table 2).
(§5) CellTilter-Glo reagent (Promega, Cat. No. G7572) consists of CTG lyophilized powder and CTG buffer. Before use, the lyophilized powder needs to be dissolved in the buffer.
(§6) After overnight incubation, 3 μL of DMEM diluted compound was added to each well, which was then gently centrifuged to mix well, and then the 384-well plate was placed in a 37° C., 5% CO2 incubator to continue the culture, and after 72 hours, the plate was taken out and allowed to stand at room temperature for 30 minutes, next added 15 μL of CTG reagent per well, which was warmed up to room temperature, the plate was shaken gently on a shaker for 3 minutes to ensure sufficient cell lysis, allowed to stand 10 minutes to stabilize the luminescence signal, and then read the luminescence signal with EnVision (Perkin Elmer).
as §4

[3] = tested on: SNU-16 gastric cancer cell line; experiment: Inhibition on the proliferation of SNU-16 cells (luminescent cell viability assay); assay type: cell-based; conditions: Homo sapiens, 72 hours
Description: as §5, §6, §4
The effect of the compounds of the present invention on cell proliferation of SNU-16 gastric cancer cell line was assessed using a luminescent cell viability assay (Table 2).
(§7) For the experimental method, please refer to the method for determining the inhibition on the proliferation of Hep3B cells.

[4] = tested on: RT4 bladder cancer cell line; experiment: Inhibition on the proliferation of RT4 cells (luminescent cell viability assay); assay type: cell-based; conditions: Homo sapiens, RT-4, 72 hours
Description: as §5, §6, §4
The effect of the compounds of the present invention on cell proliferation of the RT4 bladder cancer cell line was assessed using a luminescent cell viability assay (Table 2).
as §7

[5] = molecular target: human recombinant FGFR4 catalytic domain protein (amino acid 460-802) (Homo sapiens (Human), UniProt P22455); experiment: FGFR4 activity inhibition test (HTRF kinase assay); assay type: biochemical; conditions: 90 μM ATP
Sequence of human recombinant FGFR4 catalytic domain protein (amino acid 460-802) (P22455 460-802): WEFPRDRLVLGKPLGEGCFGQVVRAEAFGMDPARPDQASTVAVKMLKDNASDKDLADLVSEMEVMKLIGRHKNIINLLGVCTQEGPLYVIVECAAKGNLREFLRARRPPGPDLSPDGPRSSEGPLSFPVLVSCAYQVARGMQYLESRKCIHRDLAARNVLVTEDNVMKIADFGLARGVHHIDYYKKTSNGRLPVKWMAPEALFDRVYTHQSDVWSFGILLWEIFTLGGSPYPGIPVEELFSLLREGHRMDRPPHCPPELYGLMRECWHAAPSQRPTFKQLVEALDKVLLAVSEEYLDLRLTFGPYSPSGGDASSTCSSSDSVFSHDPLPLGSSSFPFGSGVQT
Description: as §1, §2, §3, §4

[6] = molecular target: human recombinant FGFR2 catalytic domain protein (amino acid 400-821) (Homo sapiens (Human), UniProt P21802); experiment: FGFR2 activity inhibition test (HTRF kinase assay); assay type: biochemical; conditions: 50 μM ATP
Sequence of human recombinant FGFR2 catalytic domain protein (amino acid 400-821) (P21802 400-821): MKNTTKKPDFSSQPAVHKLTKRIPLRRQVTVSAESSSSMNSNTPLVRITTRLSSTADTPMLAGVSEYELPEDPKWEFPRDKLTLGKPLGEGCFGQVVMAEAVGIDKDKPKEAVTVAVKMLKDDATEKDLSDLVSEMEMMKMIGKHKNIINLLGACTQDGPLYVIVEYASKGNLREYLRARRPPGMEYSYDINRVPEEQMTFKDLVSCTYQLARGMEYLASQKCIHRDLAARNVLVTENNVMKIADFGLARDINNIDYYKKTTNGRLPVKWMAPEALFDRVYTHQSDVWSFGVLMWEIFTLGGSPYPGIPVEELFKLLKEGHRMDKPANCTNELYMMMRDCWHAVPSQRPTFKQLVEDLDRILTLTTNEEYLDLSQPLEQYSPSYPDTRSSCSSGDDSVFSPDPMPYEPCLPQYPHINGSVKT
Description: as §1, §2, §3, §4

Sequence of human recombinant FGFR3 catalytic domain protein (amino acid 399-806) (P22607 399-806): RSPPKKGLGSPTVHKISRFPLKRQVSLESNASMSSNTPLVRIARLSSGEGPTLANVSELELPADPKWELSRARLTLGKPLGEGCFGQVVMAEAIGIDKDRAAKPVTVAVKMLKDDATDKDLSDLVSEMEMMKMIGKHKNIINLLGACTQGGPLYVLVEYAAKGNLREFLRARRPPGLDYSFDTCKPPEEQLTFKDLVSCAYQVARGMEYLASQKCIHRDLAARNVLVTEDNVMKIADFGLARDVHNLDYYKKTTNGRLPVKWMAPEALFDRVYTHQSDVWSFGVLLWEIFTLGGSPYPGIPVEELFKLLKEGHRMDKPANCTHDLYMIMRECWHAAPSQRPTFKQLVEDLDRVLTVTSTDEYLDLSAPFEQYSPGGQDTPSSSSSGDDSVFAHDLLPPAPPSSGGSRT

## C=CC(=O)N1CC[C@H](n2nc(C#Cc3cc(Cl)ccc3F)c(C(N)=O)c2NC)C1 [Compound 23, (S)-1-(1-acryloylpyrrolidin-3-yl)-3-((5-chloro-2-fluorophenyl)ethynyl)-5-(methylamino)-1H-pyrazole-4-carboxamide]
[1]
  IC50: < 10 nM
[2]
  IC50: 10 to 100 nM
Hep3B hepatoma cell line
  IC50: < 10 nM
[3]
  IC50: < 10 nM
[4]
  IC50: 10 to 100 nM
[5]
  IC50: 10 to 100 nM
[6]
  IC50: < 10 nM

## C=CC(=O)N1CC[C@H](n2nc(C#Cc3cc(OC)cc(OC)c3)c(C(N)=O)c2NCC2CC2)C1 [Compound 26, (S)-1-(1-acryloylpyrrolidin-3-yl)-5-((cyclopropylmethyl)amino)-3-((3,5-dimethoxyphenyl)ethynyl)-1H-pyrazole-4-carboxamide]
[1]
  IC50: < 10 nM
[2]
  IC50: < 10 nM
Hep3B hepatoma cell line
  IC50: 10 to 100 nM
[3]
  IC50: < 10 nM
[4]
  IC50: < 10 nM
[5]
  IC50: < 10 nM
[6]
  IC50: < 10 nM

## C=CC(=O)N1CC[C@H](n2nc(C#Cc3cc(OC)cc(OC)c3)c(C(N)=O)c2NCCCN2CCOCC2)C1 [Compound 30, (S)-1-(1-acryloylpyrrolidin-3-yl)-3-((3,5-dimethoxyphenyl)ethynyl)-5-((3-morpholinopropyl)amino)-1H-pyrazole-4-carboxamide]
[1]
  IC50: < 10 nM
[2]
  IC50: 10 to 100 nM
Hep3B hepatoma cell line
  IC50: 10 to 100 nM
[3]
  IC50: < 10 nM
[4]
  IC50: < 10 nM
[5]
  IC50: 10 to 100 nM
[6]
  IC50: < 10 nM

## C=CC(=O)N1CC[C@H](n2nc(C#Cc3cc(OC)cc(OC)c3F)c(C(N)=O)c2N)C1 [Compound 17, (S)-1-(1-acryloylpyrrolidin-3-yl)-5-amino-3-((2-fluoro-3,5-dimethoxyphenyl)ethynyl)-1H-pyrazole-4-carboxamide]
[1]
  IC50: < 10 nM
[2]
  IC50: < 10 nM
Hep3B hepatoma cell line
  IC50: < 10 nM
[3]
  IC50: < 10 nM
[4]
  IC50: < 10 nM
[5]
  IC50: < 10 nM
[6]
  IC50: < 10 nM

## C=CC(=O)N1CC[C@H](n2nc(C#Cc3cc(OC)cc(OC)c3)c(C(N)=O)c2NCCO)C1 [Compound 29, (S)-1-(1-acryloylpyrrolidin-3-yl)-3-((3,5-dimethoxyphenyl)ethynyl)-5-((2-hydroxyethyl)amino)-1H-pyrazole-4-carboxamide]
[1]
  IC50: < 10 nM
[2]
  IC50: 10 to 100 nM
Hep3B hepatoma cell line
  IC50: < 10 nM
[3]
  IC50: < 10 nM
[4]
  IC50: < 10 nM
[5]
  IC50: 10 to 100 nM
[6]
  IC50: < 10 nM

## C=CC(=O)N1CC[C@H](n2nc(C#Cc3cc(OC)cc(OC)c3)c(C(N)=O)c2N)C1 [Compound 7, (S)-1-(1-acryloylpyrrolidin-3-yl)-5-amino-3-((3,5-dimethoxyphenyl)ethynyl)-1H-pyrazole-4-carboxamide]
[1]
  IC50: < 10 nM
[2]
  IC50: < 10 nM
Hep3B hepatoma cell line
  IC50: < 10 nM
[3]
  IC50: < 10 nM
[4]
  IC50: < 10 nM
[5]
  IC50: < 10 nM
[6]
  IC50: < 10 nM

## C=CC(=O)N1CC[C@H](n2nc(C#Cc3cc(OC)cc(OC)c3F)c(C(N)=O)c2NC)C1 [Compound 22, (S)-1-(1-acryloylpyrrolidin-3-yl)-3-((2-fluoro-3,5-dimethoxyphenyl)ethynyl)-5-(methylamino)-1H-pyrazole-4-carboxamide]
[1]
  IC50: < 10 nM
[2]
  IC50: < 10 nM
Hep3B hepatoma cell line
  IC50: < 10 nM
[3]
  IC50: < 10 nM
[4]
  IC50: < 10 nM
[5]
  IC50: < 10 nM
[6]
  IC50: < 10 nM

## C=CC(=O)N1CC[C@H](n2cc(C(N)=O)c(C#Cc3cc(OC)cc(OC)c3)n2)C1 [Compound 1, (S)-1-(1-acryloylpyrrolidin-3-yl)-3-((3,5-dimethoxyphenyl)ethynyl)-1H-pyrazole-4-carboxamide]
[1]
  IC50: 10 to 100 nM
[2]
  IC50: 10 to 100 nM
Hep3B hepatoma cell line
  IC50: 10 to 100 nM
[3]
  IC50: 10 to 100 nM
[4]
  IC50: 10 to 100 nM
[5]
  IC50: 10 to 100 nM
[6]
  IC50: 10 to 100 nM
